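Results reflect a 48-hour exposure of cells in 96-well plates to compound at five concentrations. Definition used: TGI = concentration required for complete inhibition of growth.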 A value given as a limit tells only on which side of the number the result lay.

These results are taken from PubChem BioAssay (NCI).

Some test systems named below: U251 CNS; NCI/ADR-RES ovarian; SK-MEL-2 melanoma; RPMI-8226 leukemia; HCC-2998 colon; T-47D breast; NCI-H460 lung; MDA-MB-435; HS 578T breast; HT29 colon; KM12 colon; NCI-H522 lung; SK-MEL-5 melanoma; HOP-92 NSCLC; TK-10 renal; MDA-N; MOLT-4 leukemia; HCT-116 colon; A498 renal.
Holding throughout (assay): NCI anticancer screen, dose series, 48 h

In the case of `COC(=O)c1c(O)ccc2c1c1c(n2Cc2ccccc2)C(=O)c2ccccc2C1=O`, the TGI is 29.2 µM with U251 CNS; 28.8 µM in the experiment with NCI/ADR-RES ovarian; 27.7 µM with SK-MEL-2 melanoma; 29.2 µM in the experiment with RPMI-8226 leukemia; 17.9 µM in the experiment with HCC-2998 colon; 42.1 µM in the experiment with T-47D breast. For the same compound, the TGI in the experiment with NCI-H460 lung amounted to 59.8 µM; in the experiment with MDA-MB-435, 28 µM; in the experiment with HS 578T breast it was 43.3 µM; with HT29 colon, 22.6 µM; in the experiment on KM12 colon it was 29.7 µM; with NCI-H522 lung it was 23.8 µM. In addition, the TGI came to 31.9 µM with SK-MEL-5 melanoma; 27.1 µM in the experiment with HOP-92 NSCLC; 31.8 µM in the experiment on TK-10 renal; 56.3 µM in the experiment with MDA-N; 25.3 µM with MOLT-4 leukemia; 27.8 µM with HCT-116 colon.

With `CCN(CC)C1Oc2cc3c(cc2C(c2ccc(OC)cc2)C1C)OCO3` (stereo not drawn), the TGI in the experiment with U251 CNS came out at 54.9 µM; with SK-MEL-2 melanoma, 38.6 µM; with RPMI-8226 leukemia, 38 µM; with HCC-2998 colon, 35.3 µM; in the experiment on T-47D breast, 77 µM; in the experiment on NCI-H460 lung, 37.2 µM. For the same compound, the TGI was 39.1 µM in the experiment with MDA-MB-435; 48.2 µM with HS 578T breast; 34.7 µM in the experiment on HT29 colon; 48.2 µM with A498 renal; 53.2 µM in the experiment with KM12 colon; 35.8 µM with NCI-H522 lung. The TGI stood at 31.9 µM in the experiment with SK-MEL-5 melanoma; 57.9 µM with HOP-92 NSCLC; 56.2 µM with TK-10 renal; 65.5 µM in the experiment on MDA-N; 41.8 µM with MOLT-4 leukemia; 29.2 µM in the experiment on HCT-116 colon.

For `COc1cc(S(=O)(=O)Nc2nc(-c3ccc(N4C(=O)CSC4c4cccs4)cc3)cs2)ccc1Cl` (stereo not drawn), the TGI in the experiment with U251 CNS, with NCI/ADR-RES ovarian, in the experiment with SK-MEL-2 melanoma, in the experiment with T-47D breast, in the experiment with NCI-H460 lung and with MDA-MB-435 was over 100 µM each time. For the same compound, the TGI in the experiment with HS 578T breast is over 100 µM; in the experiment with HT29 colon, over 100 µM; in the experiment on A498 renal it was over 100 µM; in the experiment with KM12 colon it was over 100 µM; in the experiment on NCI-H522 lung it was 83.2 µM; in the experiment with SK-MEL-5 melanoma it was over 100 µM. Further, the TGI in the experiment on HOP-92 NSCLC, in the experiment on TK-10 renal, with MDA-N, with MOLT-4 leukemia and in the experiment on HCT-116 colon was over 100 µM each time.

Turning to `O=C(Nc1cccc2ccccc12)Nn1cnnc1`, the TGI in the experiment with U251 CNS, in the experiment with SK-MEL-2 melanoma, with RPMI-8226 leukemia, with HCC-2998 colon, with T-47D breast and in the experiment on NCI-H460 lung was over 100 µM throughout. Also, the TGI in the experiment on MDA-MB-435, in the experiment with HS 578T breast, in the experiment with HT29 colon, with A498 renal, with KM12 colon and with NCI-H522 lung was over 100 µM in each case. Further, the TGI in the experiment with SK-MEL-5 melanoma, in the experiment on HOP-92 NSCLC, with TK-10 renal, in the experiment on MDA-N, in the experiment on MOLT-4 leukemia and with HCT-116 colon was over 100 µM in each case.

In the case of `N#CC(C#N)N=Cc1ccncc1`, the TGI in the experiment on U251 CNS, in the experiment on NCI/ADR-RES ovarian, in the experiment on SK-MEL-2 melanoma, in the experiment with RPMI-8226 leukemia, in the experiment with HCC-2998 colon and in the experiment with T-47D breast was over 100 µM throughout. In addition, the TGI with MDA-MB-435, in the experiment with HT29 colon, in the experiment on A498 renal, in the experiment with KM12 colon, in the experiment on SK-MEL-5 melanoma and in the experiment on HOP-92 NSCLC was over 100 µM in each case. Also, the TGI with TK-10 renal, in the experiment with MDA-N, in the experiment with MOLT-4 leukemia and in the experiment with HCT-116 colon was over 100 µM throughout.

With `OC1(CCc2ccccc2)COC(C(F)(F)F)(C(F)(F)F)C1` (stereo not drawn), the TGI in the experiment with U251 CNS, in the experiment on NCI/ADR-RES ovarian, in the experiment on SK-MEL-2 melanoma, with RPMI-8226 leukemia, with HCC-2998 colon and in the experiment with T-47D breast was over 100 µM in each case. Further, the TGI with NCI-H460 lung, with MDA-MB-435, with HS 578T breast, in the experiment with HT29 colon, in the experiment with A498 renal and in the experiment with KM12 colon was over 100 µM throughout. For the same compound, the TGI in the experiment on NCI-H522 lung, in the experiment with SK-MEL-5 melanoma, in the experiment on TK-10 renal, in the experiment on MDA-N, in the experiment with MOLT-4 leukemia and with HCT-116 colon was over 100 µM throughout.

Turning to `COc1ccc2c(c1)/C(=C\c1c(C)nc3n1CCS3)C(=O)N2`, the TGI in the experiment with U251 CNS was 60 µM; in the experiment with NCI/ADR-RES ovarian, over 100 µM; in the experiment with SK-MEL-2 melanoma it was over 100 µM; in the experiment on RPMI-8226 leukemia it was over 100 µM; with HCC-2998 colon it was over 100 µM; in the experiment with T-47D breast, over 100 µM. For the same compound, the TGI in the experiment on NCI-H460 lung is over 100 µM; in the experiment with MDA-MB-435, 11.5 µM; in the experiment with HT29 colon it was over 100 µM; in the experiment with A498 renal, 99.6 µM; in the experiment with KM12 colon, over 100 µM; in the experiment with SK-MEL-5 melanoma it was over 100 µM. Also, the TGI in the experiment on HOP-92 NSCLC is over 100 µM; in the experiment on TK-10 renal, over 100 µM; in the experiment on MDA-N it was 13.6 µM; in the experiment on MOLT-4 leukemia, over 100 µM; in the experiment on HCT-116 colon, over 100 µM.

Take `CC(C)(C)O/C=C1/C(=O)OC2C[C@@H](O[Si](C)(C)C(C)(C)C)CC12` (stereo partly drawn): the TGI in the experiment on U251 CNS, in the experiment with NCI/ADR-RES ovarian, in the experiment with SK-MEL-2 melanoma, in the experiment on HCC-2998 colon, in the experiment on T-47D breast and in the experiment on NCI-H460 lung was over 100 µM throughout. Also, the TGI in the experiment with MDA-MB-435 was over 100 µM; with HT29 colon it was over 100 µM; with A498 renal, over 100 µM; with KM12 colon, over 100 µM; in the experiment on NCI-H522 lung it was 87.4 µM; with SK-MEL-5 melanoma, over 100 µM. The TGI with HOP-92 NSCLC, in the experiment with TK-10 renal, with MDA-N and with HCT-116 colon was over 100 µM in each case.
